Laboratory results reported in ChEMBL document CHEMBL1134000, “Structure elucidation and conformational properties of a novel bioactive clerodane diterpene using a combination of high field NMR spectroscopy, computational analysis and X-ray diffraction” (2001).
Values after ≈ are worked out from the molar mass of the structure shown.

What was measured:
Escherichia coli = experiment: Minimum inhibitory concentration against Escherichia coli (ATCC 25922); assay type: functional
Klebsiella pneumoniae = experiment: Minimum inhibitory concentration against Klebsiella pneumoniae (ATCC 13883); assay type: functional
[1] = Minimum inhibitory concentration against Pseudomonas aeruginosa; assay type: functional, […] aeruginosa
Staphylococcus aureus = experiment: Minimum inhibitory concentration against Staphylococcus aureus (ATCC 6538); assay type: functional
[2] = test system: Staphylococcus epidermidis; experiment: Minimum inhibitory concentration against Staphylococcus epidermidis (ATCC 12228); assay type: functional
Staphylococcus hominis = experiment: Minimum inhibitory concentration against Staphylococcus hominis (ATCC 27844); assay type: functional

MIC50 (Escherichia coli) [µM] | MIC50 (Klebsiella pneumoniae) [µM] | MIC50 [1] [µM] | MIC50 (Staphylococcus aureus) [µM] | MIC50 [2] [µM] | MIC50 (Staphylococcus hominis) [µM] | SMILES
1370 (≈ 499 µg/mL) | 1370 (≈ 499 µg/mL) | 1370 (≈ 499 µg/mL) | 85 (≈ 31 µg/mL) | 85 (≈ 31 µg/mL) | 85 (≈ 31 µg/mL) | CC(=O)OCC1=CCC[C@@H]2[C@@](C)(CC[C@H](C)CC(=O)O)[C@H](C)CC[C@]12C
930 (≈ 300 µg/mL) | 930 (≈ 300 µg/mL) | 930 (≈ 300 µg/mL) | 1240 (≈ 400 µg/mL) | 1240 (≈ 400 µg/mL) | 1240 (≈ 400 µg/mL) | C[C@@H](CC[C@@]1(C)[C@H](C)CC[C@]2(C)C(CO)=CCC[C@H]12)CC(=O)O
– | – | – | 320 (≈ 98.7 µg/mL) | 320 (≈ 98.7 µg/mL) | 320 (≈ 98.7 µg/mL) | C=C[C@](C)(O)CC[C@@H]1[C@@]2(C)CCCC(C)(C)[C@@H]2CC[C@@]1(C)O [SCLAREOL]
0.6 (≈ 0.349 µg/mL) | 0.6 (≈ 0.349 µg/mL) | – | 2.1 (≈ 1.22 µg/mL) | 2.1 (≈ 1.22 µg/mL) | 2.1 (≈ 1.22 µg/mL) | CN[C@@H]1[C@H](O[C@H]2[C@H](O[C@H]3[C@H](O)[C@@H](O)[C@H](N=C(N)N)[C@@H](O)[C@@H]3N=C(N)N)O[C@@H](C)[C@]2(O)C=O)O[C@@H](CO)[C@H](O)[C@H]1O [STREPTOMYCIN]
